15 compounds from patent US20260008760A1, “DIPEPTIDYL PEPTIDASE 1 INHIBITORS AND USES THEREOF” (Insmed Incorporated, priority 2024, published 2026) can be followed below.

This test deals with human DPP1 enzyme (Homo sapiens, UniProt P53634). Briefly: Human DPP1 Enzyme IC50 Assay. It counts as biochemical. Set-up: was first proteolytically processed into its mature form using recombinant human cathepsin L; purchased R&D Systems. The settings on record: activated recombinant human DPP1, 400 μM H-Gly-Arg-AMC, 10 minutes pre-incubation at 37° C., pH 6.0; average of n runs; read-out: Avg. IC50 (Human DPP1 enzyme IC50 value ranges). Here is the method: Example 97. Human DPP1 Enzyme IC50 Assay
human DPP1 enzyme, sequence (P53634 25-134 limits assumed): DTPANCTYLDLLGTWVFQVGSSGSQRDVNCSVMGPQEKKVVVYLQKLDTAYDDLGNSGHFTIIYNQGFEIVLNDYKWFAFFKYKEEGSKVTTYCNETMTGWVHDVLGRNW
human DPP1 enzyme, sequence (P53634 231-394 limits assumed): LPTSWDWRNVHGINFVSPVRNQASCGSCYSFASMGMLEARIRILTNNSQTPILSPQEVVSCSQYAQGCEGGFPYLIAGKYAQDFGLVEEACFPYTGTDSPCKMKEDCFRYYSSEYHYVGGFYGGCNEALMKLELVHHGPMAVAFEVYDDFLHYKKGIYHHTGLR
human DPP1 enzyme, sequence (P53634 395-463 limits assumed): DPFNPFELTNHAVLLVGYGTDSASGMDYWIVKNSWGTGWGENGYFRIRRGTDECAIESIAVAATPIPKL
Recombinant human DPP1 enzyme (R&D Systems; Minneapolis, MN) was first proteolytically processed into its mature form using recombinant human cathepsin L (R&D Systems) in a buffer consisting of 20 mM citric acid pH 4.5, 150 mM NaCl, 1 mM EDTA and 10 mM DTT. Test articles were applied to activated human DPP1 enzyme in Assay Buffer (25 mM MES pH 6.0, 50 mM NaCl, 5 mM DTT) in a total reaction volume of 125 μL. 25 μL of compound in Assay Buffer plus 5% DMSO was first added to 50 μL of activated human DPP1 enzyme at a concentration of 1 ng/μL and allowed to pre-incubate for 10 minutes at 37° C. after which 50 μL of 1000 μM H-Gly-Arg-AMC substrate (Bachem; St. Torrance, CA) was added, giving final substrate concentration of 400 μM and a final DMSO concentration of 1%. Substrate cleavage was measured for 90 minutes at 37° C., with fluorescence at Excitation/Emission 350/450 nm measured every 5 minutes. DPP1 concentration was interpolated based on its activity relative to a standard curve of activated human recombinant DPP1 enzyme. IC50 values for each compound were calculated via the XLFit (IDBS Version 5.3.1.3) Add-On to Microsoft Excel using the four parameter fit equation y={A+[(B−A)]/[1+((C/x)^D)]}, which appears as equation number 205 (4 Parameter Logistic Model or Sigmoidal Dose-Response Model) in XLFit. Default constraints were used for each Parameter. IC50 was defined as the compound concentration at which 50% of enzyme activity was inhibited when compared to the no-compound control.
For orientation: IC50 means the concentration needed to halve the response being measured. `Cn1nc(F)c2ccc(-c3ncc(C[C@@H](C#N)NC(=O)[C@@H]4CNCC[C@@H](F)CO4)s3)cc21` [Compound A172]: the IC50 was > 15 nM.
On to `CN1Cc2cc(F)ccc2-c2ccc(C[C@@H](C#N)NC(=O)[C@@H]3CNCCCO3)cc2C1=O` [Compound B3, (2S)—N-[(1S)-1-cyano-2-{13-fluoro-9-methyl-8-oxo-9-azatricyclo[9.4.0.0^{2,7}1]pentadeca-1(11),2,4,6,12,14-hexaen-5-yl}ethyl]-1,4-oxazepane-2-carboxamide], for which the IC50 was > 15 nM.
The value for `N#Cc1ccc(C23CCC(C[C@@H](C#N)NC(=O)[C@@H]4CNCCCO4)(CC2)CC3)cc1` [Compound 1] was > 15 nM.
The value for `N#Cc1ccc(C23CC(C[C@@H](C#N)NC(=O)[C@@H]4CNCCCO4)(C2)C3)cc1` [Compound 2] was > 15 nM.
As to `N#Cc1ccc2c(c1)COc1cc(C[C@@H](C#N)NC(=O)[C@@H]3CNCCCCO3)c(F)cc1-2` (single isomer, unassigned) [Compound B8], the IC50 is > 15 nM.
The same measure for `Cn1c(=O)oc2ccc3c(c21)COc1cc(C[C@H](C#N)NC(=O)[C@@H]2CNCCCO2)c(F)cc1-3` [Compound C2-B]: > 15 nM; for `CO[C@H]1CCO[C@H](C(=O)N[C@H](C#N)Cc2ccc(-c3ccc4cnn(C5CCN(C6COC6)CC5)c4c3)cc2F)CNC1` [Compound H2]: 5 to 15 nM.
`N#C[C@H](Cc1ccc(-c2ccnc3nc(O)oc23)cc1)NC(=O)[C@@H]1CNCCCO1` [Compound A13, (2S)—N-[(1S)-1-cyano-2-(4-{2-hydroxy-[1,3]oxazolo[4,5-b]pyridin-7-yl}phenyl)ethyl]-1,4-oxazepane-2-carboxamide]: the IC50 was > 15 nM.
Take `N#C[C@H](Cc1ccc(C23CC(C#N)(C2)C3)cc1)NC(=O)[C@@H]1CNCCCO1` [Compound 3]: the IC50 is > 15 nM.
The same measure for `CO[C@H]1CCO[C@H](C(=O)N[C@H](C#N)Cc2cnc(-c3ccc4c(F)nn(C)c4c3)s2)CNC1` [Compound A170]: 5 to 15 nM.
Regarding `N#C[C@H](Cc1ccc(-c2cc3c(O)ccnn3c2)cc1)NC(=O)[C@@H]1CNCCCO1` [Compound A15, (S)—N—((S)-1-cyano-2-(4-(4-hydroxypyrrolo[1,2-b]pyridazin-6-yl)phenyl)ethyl)-1,4-oxazepane-2-carboxamide], the IC50 is > 15 nM.
Regarding `N#C[C@H](Cc1ccc(-c2cncc3[nH]c(=O)[nH]c23)cc1)NC(=O)[C@@H]1CNCCCO1` [Compound A17, (2S)—N-[(1S)-1-cyano-2-(4-{2-oxo-1H,3H-imidazo[4,5-c]pyridin-7-yl}phenyl)ethyl]-1,4-oxazepane-2-carboxamide], the IC50 is > 15 nM.
The value for `CO[C@H]1CCO[C@H](C(=O)N[C@H](C#N)Cc2ccc(-c3ccc4cnn(C5CCN(C)CC5)c4c3)cc2F)CNC1` [Compound H1] was < 5 nM.
The same measure for `N#C[C@H](Cc1ccc(-c2cnc3[nH]ccc3n2)cc1)NC(=O)[C@@H]1CNCCCO1` [Compound A16, (2S)—N-[(1S)-1-cyano-2-(4-{5H-pyrrolo[2,3-b]pyrazin-2-yl}phenyl)ethyl]-1,4-oxazepane-2-carboxamide]: > 15 nM; for `CN1CCC2(CCc3ccc4c(c32)COc2cc(CC(C#N)NC(=O)[C@@H]3CNCCCO3)c(F)cc2-4)CC1` (stereo partly drawn) [Compound C4, (2S)—N-(1-cyano-2-{8-fluoro-1′-methyl-2,4-dihydro-1H-spiro[indeno[4,5-c]chromene-3,4′-piperidin]-7-yl}ethyl)-1,4-oxazepane-2-carboxamide]: > 15 nM.
